*1 amine or outer side, *2 acyl side, *3 side chain or, on linkers, in order; H or OH if unused. Where a SMILES comes first, the peptide text is derived from it. Bridges are numbered along the chain shown (N, C = ends). [ ]: non-standard residue; d: D form. Adda = CO[C@@H](Cc1ccccc1)[C@@H](C)/C=C(C)/C=C/[C@H](N[*:1])[C@H](C)C(=O)[*:2]; dAsp(3S-Me) = C[C@H](C(=O)[*:3])[C@@H](N[*:1])C(=O)[*:2]; d(γGlu) = O=C(O)[C@@H](CCC(=O)[*:2])N[*:1]; Abu = CC[C@H](N)C(=O)O; NMeDha = C=C(NC)C(=O)O
Tests used:
[1] = tested on: River Chriesbach biofilm suspension (100%)
[2] = tested on: River Chriesbach biofilm suspensions
[3] = tested on: River Chriesbach river water
[4] = tested on: River Chriesbach biofilm suspension (100%, 10%, 1%)
[5] = tested on: River Chriesbach biofilm suspension
[6] = tested on: River Glatt biofilm suspension
[7] = tested on: lake Greifensee water and three rivers
[8] = tested on: River Mönschaltorfer Aa biofilm suspension

For `C=C1C(=O)N[C@H](C)C(=O)N[C@@H](CC(C)C)C(=O)N[C@@H](C(=O)O)[C@H](C)C(=O)N[C@@H](CC)C(=O)N[C@@H](/C=C/C(C)=C/[C@H](C)[C@H](Cc2ccccc2)OC)[C@H](C)C(=O)N[C@@H](C(=O)O)CCC(=O)N1C` [MC-LAba] ([Abu][Adda][d(γGlu)][NMeDha][dA]L[dAsp(3S-Me)]-OH; lactam N-7), the “1.3d removal, 2% metabolite” value [1] was -7%, the “1.3d removal, 10% metabolite” value [1] was -2% and the “1.3d removal, 100% metabolite” value [1] was 8%. The “Half-lives (h), 100% metabolite” value [1] was “n.d. (decay)”, the “biodegradability in biofilm suspensions (in words)” value [2] was “remained rather stable” and the “1d removal, River water” value [3] was -11%. The “Half-lives (h), River water” value [3] was “n.d.(decay)”, the “1d removal, 1% biofilm” value [4] was -6% and the “1d removal, 10% biofilm” value [4] was 13%. The “1d removal, 100% biofilm” value [4] was -8%, the “Half-lives (h), 1% biofilm” value [4] was “n.d.(decay)” and the “Half-lives (h), 10% biofilm” value [4] was “n.d.(decay)”. The “Half-lives (h), 100% biofilm” value [4] was “n.d.(decay)” and the “removal within 3 days” value [5] was less than 13%.

For `O=C(O)c1ccccc1` [benzoic acid, reference compound], the “removal of benzoic acid after 8 h” value [6] was 3%, the “removal of benzoic acid after 24 h” value [6] was 75% and the “removal of benzoic acid within 4 h” value [1] was 94-100%. For the same molecule, the “biotransformation during incubation in surface waters” value [7] was “degraded within hours”, the “removal of benzoic acid after 8 h” value [8] was 41% and the “removal of benzoic acid after 24 h” value [8] was 84%. For the same molecule, the “removal of benzoic acid after 1 day, 1% density” value [4] was 62%, the “removal of benzoic acid after 1 day, 10% density” value [4] was 77% and the “removal of benzoic acid after 1 day, 100% density” value [4] was 97%. For the same molecule, the “removal of benzoic acid after 8 h” value [5] was 72% and the “removal of benzoic acid after 24 h” value [5] was 100%.

For [D-Asp3]MC‐(H4)YR [[D-Asp3]MC-(H4)YR], the “1.3d removal, 2% metabolite” value [1] was 100%, the “1.3d removal, 10% metabolite” value [1] was 100% and the “1.3d removal, 100% metabolite” value [1] was 94%. For the same molecule, the “Half-lives (h), 100% metabolite” value [1] was 11.0 h, the “Lag-time (h), 100% metabolite” value [1] was 1.1 h and the “biodegradability in biofilm suspensions (in words)” value [2] was “biodegradable”. The “1d removal, River water” value [3] was -24%, the “Lag-time (h), River water” value [3] was 168.0 h and the “degradation in ambient river water” value [3] was “detectable degradation”. For the same molecule, the “half-life, river water” value [3] was 170 h, the “1d removal, 1% biofilm” value [4] was 6% and the “1d removal, 10% biofilm” value [4] was 31%. For the same molecule, the “1d removal, 100% biofilm” value [4] was 94%, the “Half-lives (h), 100% biofilm” value [4] was 7.6 h and the “Lag-time (h), 1% biofilm” value [4] was 108.8 h. The “Lag-time (h), 10% biofilm” value [4] was 56.4 h, the “Lag-time (h), 100% biofilm” value [4] was 5.8 h and the “half-life, 1% biofilm” value [4] was 120 h. For the same molecule, the “half-life, 10% biofilm” value [4] was 62.4 h and the “removal within 3 days” value [5] was 86%.

From paper PMC12490008 (Environmental Science & Technology, 2025)
